Where two headings read alike, the source gives them in different places.
Experiments:
[1] = molecular target: T1, human IDO (IDO1-expressing HEK293 cells) (Homo sapiens, UniProt P14902); test: Cell based kynurenine assay, IDO1-expressing HEK293 cell clones; settings: IDO1-expressing HEK293 cells, geometric mean, read-out: HEK293 IDO1 Kynurenine GMean IC50 (μM) (Cellular Assay)
T1 construct: expressed in transfected cells
Outline: (§1)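 IC50 values come from nonlinear regression of kynurenine reduction in supernatants of human IDO1- or TDO-expressing HEK293 cells incubated 24 h with serially diluted compounds, normalised to cell and media-only controls containing 0.2% DMSO.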

[2] = molecular target: T2, human TDO (TDO-expressing HEK293 cells) (Homo sapiens, UniProt P48775); test: Cell based kynurenine assay, TDO-expressing HEK293 cell clones; settings: TDO-expressing HEK293 cells, geometric mean, read-out: HEK293 TDO Kynurenine GMean IC50 (μM) (Cellular Assay)
T2 construct: expressed in transfected cells
T2 sequence (P48775 whole entry): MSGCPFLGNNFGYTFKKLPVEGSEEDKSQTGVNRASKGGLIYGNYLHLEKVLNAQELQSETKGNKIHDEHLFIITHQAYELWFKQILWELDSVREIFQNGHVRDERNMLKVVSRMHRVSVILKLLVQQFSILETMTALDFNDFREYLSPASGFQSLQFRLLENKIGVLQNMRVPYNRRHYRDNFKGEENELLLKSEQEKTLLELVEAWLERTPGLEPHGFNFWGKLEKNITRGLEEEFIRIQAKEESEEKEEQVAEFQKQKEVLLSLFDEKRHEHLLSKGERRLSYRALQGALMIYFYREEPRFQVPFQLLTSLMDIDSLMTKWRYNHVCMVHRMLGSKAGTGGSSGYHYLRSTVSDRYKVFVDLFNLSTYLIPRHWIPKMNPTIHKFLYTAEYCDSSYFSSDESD
Outline: as §1

[3] = molecular target: T3, Human Indoleamine 2,3-dioxygenase (IDO) (Homo sapiens, UniProt P14902); test: Human IDO enzymatic assay (kynurenine level); assay type: biochemical; settings: 6 nM IDO, 10 μM L-Trp; geometric mean; read-out: IDO1 GMean: IC50 (μM) (Biochemical Assay)
T3 construct: His tag (N); made in house; host or cells: E. coli
T3 sequence (P14902 whole entry): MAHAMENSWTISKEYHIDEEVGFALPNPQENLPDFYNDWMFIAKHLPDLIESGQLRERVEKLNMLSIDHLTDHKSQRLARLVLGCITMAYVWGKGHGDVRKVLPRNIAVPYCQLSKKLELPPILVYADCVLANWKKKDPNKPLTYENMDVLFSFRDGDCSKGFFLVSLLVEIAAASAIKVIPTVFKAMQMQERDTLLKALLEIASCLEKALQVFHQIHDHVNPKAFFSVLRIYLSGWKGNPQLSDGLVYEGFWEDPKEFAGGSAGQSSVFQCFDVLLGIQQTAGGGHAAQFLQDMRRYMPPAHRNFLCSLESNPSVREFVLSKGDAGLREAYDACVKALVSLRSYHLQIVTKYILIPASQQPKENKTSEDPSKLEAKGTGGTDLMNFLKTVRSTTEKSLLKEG
Outline: (§2)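 Reactions were stopped with TCA, converting N-formylkynurenine to kynurenine for quantitation, with IC50 by nonlinear regression. IDO: 6 nM enzyme, 10 μM L-Trp, 20 min RT. TDO: 1 nM enzyme, 350 μM L-Trp, 70 min RT, both in pH 6.5 buffer.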

[4] = molecular target: T4, Human Tryptophan 2,3-dioxygenase (TDO) (Homo sapiens, UniProt P48775); test: Human TDO enzymatic assay (kynurenine level); assay type: biochemical; settings: 1 nM TDO, 350 μM L-Trp; geometric mean; read-out: TDO GMean: IC50 (μM) (Biochemical Assay)
T4 construct: His tag (N); made in house; host or cells: E. coli
T4 sequence (P48775 whole entry): as the sequence (P48775 whole entry) above
Outline: as §2

T1 sequence (P14902 whole entry): as the sequence (P14902 whole entry) above

Compound | IC50 ([1]; 24 hours) [µM] | IC50 ([2]; 24 hours) [µM] | IC50 [3] [µM] | IC50 [4] [µM] | IC50 ([1]; 24 hours incubation) [µM] | IC50 ([2]; 24 hours incubation) [µM]
CC(C)(C1CCN(C(=O)c2ccc(N3CCOCC3)nc2)CC1)[C@H](O)c1cc(Cl)cc2cn[nH]c12 [Compound P-0538, (S)-(4-(1-(5-chloro-1H-indazol-7-yl)-1-hydroxy-2-methylpropan-2-yl)piperidin-1-yl)(6-morpholinopyridin-3-yl)methanone] | 0.0001 to 10 | 0.0001 to 10 | 0.0001 to 10 | 0.0001 to 10 | – | –
CC(C)(C)OC(=O)N1CCC(C(C)(C)[C@H](O)c2cc(Cl)cc3cn[nH]c23)CC1 [Compound P-0337, tert-butyl (S)-4-(1-(5-chloro-1H-indazol-7-yl)-1-hydroxy-2-methylpropan-2-yl)piperidine-1-carboxylate] | – | – | 0.0001 to 10 | 0.0001 to 10 | 0.0001 to 10 | 0.0001 to 10
O[C@@H](c1c(F)c(Cl)cc2cn[nH]c12)C12CCC(CC1)CC2 [Compound P-0335, (R)-bicyclo[2.2.2]octan-1-yl(5-chloro-6-fluoro-1H-indazol-7-yl)methanol] | – | – | 0.0001 to 10 | 0.0001 to 10 | 0.0001 to 10 | > 10
CC(=O)N1CCC(C(C)(C)C(O)c2cc(Cl)cc3[nH]ncc23)CC1 (stereo not shown) [Compound P-0172, 1-(4-(1-(6-chloro-1H-indazol-4-yl)-1-hydroxy-2-methylpropan-2-yl)piperidin-1-yl)ethan-1-one] | – | – | 0.0001 to 10 | 0.0001 to 10 | 0.0001 to 10 | 0.0001 to 10
CC(C)(C1CCS(=O)(=O)CC1)C(O)c1c(F)c(Cl)cc2cn[nH]c12 (stereo not shown) [Compound P-0298, 4-(1-(5-chloro-6-fluoro-1H-indazol-7-yl)-1-hydroxy-2-methylpropan-2-yl)tetrahydro-2H-thiopyran 1,1-dioxide] | – | – | 0.0001 to 10 | 0.0001 to 10 | 0.0001 to 10 | 0.0001 to 10
CC(C)(C1CCN(S(C)(=O)=O)CC1)[C@H](O)c1c(F)c(Cl)cc2cn[nH]c12 [Compound P-0515, (S)-1-(5-chloro-6-fluoro-1H-indazol-7-yl)-2-methyl-2-(1-(methylsulfonyl)piperidin-4-yl) propan-1-ol] | 0.0001 to 10 | 0.0001 to 10 | 0.0001 to 10 | 0.0001 to 10 | – | –
O=S(=O)(c1ccccc1)C1(C(O)c2cc(Cl)cc3cn[nH]c23)CC1 (stereo not shown) [Compound P-0266, (5-chloro-1H-indazol-7-yl)(1-(phenylsulfonyl)cyclopropyl)methanol] | – | – | 0.0001 to 10 | 0.0001 to 10 | > 10 | > 10
CC(C)(C1CCN(C(=O)CC#N)CC1)C(O)c1cc(Cl)cc2cn[nH]c12 (stereo not shown) [Compound P-0454, 3-(4-(1-(5-chloro-1H-indazol-7-yl)-1-hydroxy-2-methylpropan-2-yl)piperidin-1-yl)-3-oxopropanenitrile] | 0.0001 to 10 | 0.0001 to 10 | 0.0001 to 10 | 0.0001 to 10 | – | –
OC(c1c2c(cc3cn[nH]c13)CC2)C1(C2CCOCC2)CC1 (stereo not shown) [Compound P-0277, (5,6-dihydro-1H-cyclobuta[f]indazol-7-yl)(1-(tetrahydro-2H-pyran-4-yl)cyclopropyl)methanol] | – | – | 0.0001 to 10 | 0.0001 to 10 | 0.0001 to 10 | > 10
Cc1ccc2cn[nH]c2c1C(O)C(C)(C)C1CCOCC1 (stereo not shown) [Compound P-0234, 2-methyl-1-(6-methyl-1H-indazol-7-yl)-2-(tetrahydro-2H-pyran-4-yl)propan-1-ol] | – | – | 0.0001 to 10 | 0.0001 to 10 | 0.0001 to 10 | 0.0001 to 10
CC(C)(C1CCN(C(=O)C2CCOCC2)CC1)[C@H](O)c1cc(Cl)cc2cn[nH]c12 [Compound P-0546, (S)-(4-(1-(5-chloro-1H-indazol-7-yl)-1-hydroxy-2-methylpropan-2-yl)piperidin-1-yl)(tetrahydro-2H-pyran-4-yl)methanone] | 0.0001 to 10 | 0.0001 to 10 | 0.0001 to 10 | 0.0001 to 10 | – | –
CC(C)(C1CCN(C(=O)Nc2cc(F)ccc2F)CC1)C(O)c1cc(Cl)cc2cn[nH]c12 (stereo not shown) [Compound P-0404, 4-(1-(5-chloro-1H-indazol-7-yl)-1-hydroxy-2-methylpropan-2-yl)-N-(2,5-difluorophenyl) piperidine-1-carboxamide] | – | – | 0.0001 to 10 | 0.0001 to 10 | 0.0001 to 10 | 0.0001 to 10
CC(C)(C1CCN(C(=O)NC2CCOCC2)CC1)C(O)c1cc(Cl)cc2cn[nH]c12 (stereo not shown) [Compound P-0451, 4-(1-(5-chloro-1H-indazol-7-yl)-1-hydroxy-2-methylpropan-2-yl)-N-(tetrahydro-2H-pyran-4-yl)piperidine-1-carboxamide] | 0.0001 to 10 | 0.0001 to 10 | 0.0001 to 10 | 0.0001 to 10 | – | –
CC(C)(C1CCN(C(=O)Nc2ccc(C#N)cc2)CC1)[C@H](O)c1c(F)c(Cl)cc2cn[nH]c12 [Compound P-0503, (S)-4-(1-(5-chloro-6-fluoro-1H-indazol-7-yl)-1-hydroxy-2-methylpropan-2-yl)-N-(4-cyanophenyl) piperidine-1-carboxamide] | 0.0001 to 10 | 0.0001 to 10 | 0.0001 to 10 | 0.0001 to 10 | – | –
OC(c1cc(Cl)cc2[nH]ncc12)C1CCCCC1 (stereo not shown) [Compound P-0173, (6-chloro-1H-indazol-4-yl)(cyclohexyl)methanol] | – | – | 0.0001 to 10 | 0.0001 to 10 | > 10 | 0.0001 to 10
CC(C)(C)OC(=O)N1CCC(C(F)(F)[C@@H](O)c2c3c(cc4cn[nH]c24)CC3)CC1 [Compound P-0528, tert-butyl (S)-4-(2-(5,6-dihydro-1H-cyclobuta[f]indazol-7-yl)-1,1-difluoro-2-hydroxyethyl) piperidine-1-carboxylate] | 0.0001 to 10 | 0.0001 to 10 | 0.0001 to 10 | > 200 | – | –
C#CCNC(=O)N1CCC(C(C)(C)[C@H](O)c2cc(Cl)cc3cn[nH]c23)CC1 [Compound P-0568, (S)-4-(1-(5-chloro-1H-indazol-7-yl)-1-hydroxy-2-methylpropan-2-yl)-N-(prop-2-yn-1-yl)piperidine-1-carboxamide] | 0.0001 to 10 | 0.0001 to 10 | 0.0001 to 10 | 0.0001 to 10 | – | –
CC(C)(C1CCN(C(=O)Nc2ccccc2)CC1)C(O)c1cc(Cl)cc2cn[nH]c12 (stereo not shown) [Compound P-0317, 4-(1-(5-chloro-1H-indazol-7-yl)-1-hydroxy-2-methylpropan-2-yl)-N-phenylpiperidine-1-carboxamide] | – | – | 0.0001 to 10 | 0.0001 to 10 | 0.0001 to 10 | 0.0001 to 10
CC(C)(C1CCN(S(N)(=O)=O)CC1)C(O)c1cc(Cl)cc2cn[nH]c12 (stereo not shown) [Compound P-0324, 4-(1-(5-chloro-1H-indazol-7-yl)-1-hydroxy-2-methylpropan-2-yl)piperidine-1-sulfonamide] | – | – | 0.0001 to 10 | 0.0001 to 10 | 0.0001 to 10 | 0.0001 to 10
O=C(Nc1ccc(F)cc1)N1CCC(C2(C(O)c3c(F)c(Cl)cc4cn[nH]c34)CC2)CC1 (stereo not shown) [Compound P-0164, 4-(1-((5-chloro-6-fluoro-1H-indazol-7-yl)(hydroxy)methyl)cyclopropyl)-N-(4-fluorophenyl)piperidine-1-carboxamide] | – | – | 0.0001 to 10 | 0.0001 to 10 | 0.0001 to 10 | 0.0001 to 10
CC(C)(C(O)c1cc(Cl)cc2cn[nH]c12)[C@H]1C[C@H]2CC[C@@H](C1)N2S(C)(=O)=O (stereo partly drawn) [Compound P-0271, 1-(5-chloro-1H-indazol-7-yl)-2-methyl-2-((1R,3r,5S)-8-(methylsulfonyl)-8-azabicyclo[3.2.1]octan-3-yl)propan-1-ol] | – | – | 0.0001 to 10 | 0.0001 to 10 | 0.0001 to 10 | 0.0001 to 10
CC1(C(O)c2c(F)c(Cl)cc3cn[nH]c23)CC(F)(F)C1 (stereo not shown) [Compound P-0114, (5-chloro-6-fluoro-1H-indazol-7-yl)(3,3-difluoro-1-methylcyclobutyl)methanol] | – | – | 0.0001 to 10 | 0.0001 to 10 | 0.0001 to 10 | 0.0001 to 10
CC(C)(O)CNC(=O)N1CCC(C(F)(F)C(O)c2cc(Cl)cc3cn[nH]c23)CC1 (stereo not shown) [Compound P-0466, 4-(2-(5-chloro-1H-indazol-7-yl)-1,1-difluoro-2-hydroxyethyl)-N-(2-hydroxy-2-methylpropyl) piperidine-1-carboxamide] | 0.0001 to 10 | 0.0001 to 10 | 0.0001 to 10 | 0.0001 to 10 | – | –
CC(C)NC(=O)N1CCC(C(C)(C)C(O)c2cc(Cl)cc3cn[nH]c23)CC1 (stereo not shown) [Compound P-0315, 4-(1-(5-chloro-1H-indazol-7-yl)-1-hydroxy-2-methylpropan-2-yl)-N-isopropylpiperidine-1-carboxamide] | – | – | 0.0001 to 10 | 0.0001 to 10 | 0.0001 to 10 | 0.0001 to 10
OC1(c2cc(Cl)cc3[nH]ncc23)CC2(CC2)C1 [Compound P-0352, 5-(6-chloro-1H-indazol-4-yl)spiro[2.3] hexan-5-ol] | – | – | 10 to 100 | 0.0001 to 10 | > 10 | 0.0001 to 10
